According to patent publication US20230158015A1, “DRUG COMBINATIONS FOR INHIBITING INFLAMMATION AND SRC KINASE ACTIVATION FOLLOWING INVASIVE SURGICAL PROCEDURES” (SINTETICA S.A., priority 2020, published 2023):

How the values were obtained:
[1] = system: LPS-induced serum inflammatory cytokines; assay: LPS-induced inflammation model, serum inflammatory cytokines (LEGENDplex, flow cytometry); type: in vivo, mouse; details: serum of treated mice
Method: (§1) C57BL/6J mice (6-8 weeks) were purchased from Charles River Laboratories (USA) and acclimatized for at least 1 week before use. All mice were housed in a pathogen-free facility. The mice received LPS for 24 hours. Following 24 hours, mice were treated either with lidocaine alone or methylnaltrexone alone or a combination of both, as shown in Table 1.
(§2) At the conclusion of the study, the blood and tissue samples were collected for further study. The serum was used to determine pro-inflammatory cytokines using the LEGENDplex™ mouse inflammation panel (BioLegend, USA) kit followed by flow cytometry. The lungs and spleen tissue samples were used for hematoxylin and eosin (H&E) staining and immunohistochemical analyses for immune cells, including macrophages and natural killer (NK) cells, B cells, T cells, and its subsets. For histopathology and immunohistochemistry (IHC), tissue samples were prepared by cutting 4-µm sections from the paraffin blocks. IHC staining was performed by methods described earlier. The images were captured using bright field microscopy (Nikon Microscope). Two independent investigators evaluated the H&E and all immunohistochemical staining. For slide scoring, each investigator assessed the tissues and gave a score of 0 (no expression) to 4+ (strong uniform expression) as described previously. The data were expressed either as the mean ± SD or mean ± SEM by using Graph Pad Prism software.
Gram-negative bacterial infections are the main cause of acute lung injury, and LPS, which is the main component of the Gram-negative bacteria cell wall, is the major stimulus for the release of inflammatory mediators. Therefore, we measured the effect of lidocaine alone, methylnaltrexone alone, or a combination of lidocaine and methylnaltrexone on LPS-induced serum inflammatory cytokines profiles. Mouse inflammatory cytokines were measured in serum of control and LPS-challenged mice treated with drugs as described in Table 1, using the LEGENDplex™ mouse inflammation panel (BioLegend, USA) kit followed by flow cytometry as per manufacturer’s specifications. […] However, serum tumor necrosis factor-alpha (TNF-α), monocyte chemoattractant protein 1 (MCP- 1), interleukin 10 (IL-10), interleukin 6 (IL-6), and interleukin 17A (IL-17A) levels were found decreased in mice challenged with LPS and treated with lidocaine and methylnaltrexone together (FIGS. 14C-G). IL-1, IL-6, IL-17A, MCP-1, and TNFα are pro- inflammatory cytokines associated with inflammatory signaling. Taken together, these findings indicate that combined treatment of lidocaine and methylnaltrexone has the potential to suppress inflammatory signaling.

[2] = system: LPS-challenged C57BL/6 mice; assay: LPS-induced inflammation model, H&E histopathology of lungs and spleen; type: in vivo, mouse
Method: as §1, §2

[3] = system: immune cells in lungs and spleen of LPS-challenged mice; assay: LPS-induced inflammation model, IHC staining of immune cells in lungs and spleen; type: in vivo, mouse; details: lungs and spleen sections
Method: as §1
as §2, with “The data were expressed either as the mean ± SD or mean ± SEM by using Graph Pad Prism software.” left out

[4] = system: Src phosphorylation at tyrosine 419; details: cited from earlier work
p-Src / total Src [5] = assay: Total Src and p-Src expression in AsPc 1 human pancreatic cancer cell line (Western blot); type: cell-based; details: 10 µM lidocaine, 100 nM methylnaltrexone or both, one hour
Method: (§3) Example 10 evaluated the effect of 10 µM lidocaine (L), 100 nM methylnaltrexone (M) and the combination of 10 µM lidocaine + 100 nM methylnaltrexone (L+M) for 1 hour on total Src and p-Src expression in a human pancreatic cancer cell line (AsPc 1).
(§4) • P-Src-Tyr416 (GeneTex # GTX81151) 1:2000 in 5% bovine serum albumin, at room temperature, 4 hours • Total Src (CST # 2108S) 1:3000 in 5% bovine serum albumin, at room temperature, 4 hours

p-Src / total Src [6] = assay: Total Src and p-Src expression in Panc1 human pancreatic cancer cell line (Western blot); type: cell-based; details: 10 µM lidocaine, 100 nM methylnaltrexone or both, time points up to 6 hours, fresh media
Method: as §4
Example 12 evaluated the effect of 10 µM lidocaine (L), 100 nM methylnaltrexone (M) and the combination of 10 µM lidocaine + 100 nM methylnaltrexone (L+M) on total Src and p-Src expression in a human pancreatic cancer cell line (Panc1) at multiple time points up to 6 hours, in fresh media. Experimental conditions were identical to Example 10.

p-Src / total Src [7] = assay: Total Src and p-Src expression in MiaPaCa 2 human pancreatic cancer cell line (Western blot); type: cell-based; details: 10 µM lidocaine, 100 nM methylnaltrexone or both, one hour
Method: as §4
as §3, with “Example 11” for “Example 10”, “line (MiaPaCa 2). Experimental conditions were identical to Example 10.” for “line (AsPc 1).”

p-Src protein = assay: p-Src inhibition by increasing lidocaine doses in human pancreatic cancer cells (Western blot); type: cell-based; details: 30 minutes of treatment, 0-100 µM tested
Method: On day 1, pancreatic cancer cells were cultured until 300,000 cells per well in a 6 well plate were obtained. On day 2, the cells were treated with 0, 0.5, 1,5, 10, 15, 30, 50 and 100 µM lidocaine for 30 minutes. Plates were then collected and washed with phosphate buffered saline and stored at -80° C. Cells were subsequently lysed with 100 µl of radioimmunoprecipitation assay buffer with protease and phosphatase buffers.
Protein estimation was done using a Bradford assay under the following conditions: • A Western Blot was stripped with 6 M guanidine hydrochloride after phosphor-Src protein blocking to probe with total Src protein. • 10% SDS-PAGE 10 well Blocking: 5% bovine serum albumin for p-Src blot. • P-Src-Tyr416 (GeneTex GTX81151) Rb: 1:1000 in 5% bovine serum albumin, Overnight. • Total Src (Cell Signaling Technology 2108S ) Rb mAb 1:1000 overnight in 5% milk. • GAPDH (Invitrogen# AM4300) : 1:5000 in 5% milk overnight. • Wash: 4x for 5 minutes each with 1x TBST. • Developed using 50% femto for the p-Src protein and homemade ECL substrate for total Src and GAPDH protein.

SMILES: CCN(CC)CC(=O)Nc1c(C)cccc1C [lidocaine, 2-diethylaminoaceto-2′,6′-xylidide]
- serum interferon-gamma (IFNγ) level [1]: insignificant changes
- serum interleukin 1 alpha (IL-1α) level [1]: insignificant changes
- H&E staining, histopathology of lungs ([2]; LPS challenged mice, lungs): perivascular edema and accumulation of mixed cell infiltration within blood, and lymphatic vessels
- histological examination of spleen ([2]; LPS challenged mice, spleen): increased number of erythrocytes in the red pulp, along with mild edema
- LPS-induced inflammation (overall conclusion) ([2]; mouse model, drug alone): partially mitigate
- F4/80 positive area (macrophages) [3]: partially decreased
- decrease in TNF-α-induced Src phosphorylation ([4]; co-incubation with TNF-α and 10 µM lidocaine, p=0.012): 73%
- decrease in Src phosphorylation at tyrosine 419 ([4]; lidocaine 1 nm-100 µM, 20 minutes, Kruskal-Wallis p=0.146): did not reach statistical significance
- p-Src activity (p-Src / total Src [5]): attenuated p-Src activity
- p-Src (p-Src / total Src [6]): inconsistent effects on decreases in p-Src
- p-Src (p-Src / total Src [7]): attenuated p-Src
- dose from which the level of p-Src protein is reduced (p-Src protein): ≥ 10 µM
